Measured values reported in ChEMBL document CHEMBL5113380, “Functionalized quinoxalinones as privileged structures with broad-ranging pharmacological activities” (Eur J Med Chem, 2022).
Values after ≈ are worked out from the molar mass of the structure shown.

Key:
[1] = Inhibition of ALR1 (unknown origin) relative to control; design: concentration or dose not given beside the values; conditions: Homo sapiens; concentration not given here
[2] = Antioxidant activity assessed as DPPH radical scavenging activity at 50 uM; format: functional
[3] = Inhibition of lipid peroxidation at 100 uM by measuring MDA concentration; format: functional; design: Activity: scale not given: the % may be the effect or the level left
[4] = Antioxidant activity assessed as DPPH radical scavenging activity at 100 uM; format: functional
[5] = Inhibition of ALR2 (unknown origin); design: species or system Homo sapiens
[6] = Inhibition of lipid peroxidation at 10 uM by measuring MDA concentration; format: functional; design: scale not given: the % may be the effect or the level left
HCT-116 [7] = test: Antiproliferative activity against human HCT-116 cells after 48 hrs by MTT assay; format: functional, cell-based; conditions: HCT-116, 48 h
[8] = biological target: Bromodomain-containing protein 4 (Homo sapiens, UniProt O60885); test: Inhibition of BRD4 (unknown origin) using histone-H4 as substrate incubated for 15 mins and measured after 1 hr by AlphaScreen assay
CT26 = test: Antitumor activity against mouse CT26 cells xenografted in C57BL/6 mouse assessed as tumor suppression rate at 20 mg/kg, ip administered for 14 days; format: functional; conditions: time 14 day
HepG2 [9] = test: Induction of apoptosis in human HepG2 cells assessed as fold increase in BAX/BCL-2 protein level; format: functional
MCF7 = test: Antiproliferative activity against human MCF7 cells; format: functional, cell-based
HepG2 [10] = test: Cell cycle arrest in human HepG2 cells assessed as fold increase in accumulation at G2/M phase; format: functional
[11] = biological target: Vascular endothelial growth factor receptor 2 (Homo sapiens, UniProt P35968)
HepG2 [12] = test: Antiproliferative activity against human HepG2 cells; format: functional, cell-based
HepG2 [13] = test: Induction of apoptosis in human HepG2 cells assessed as fold increase in caspase-3 protein level; format: functional
HepG2 [14] = test: Induction of apoptosis in human HepG2 cells assessed as fold increase in caspase-9 protein level; format: functional
Candida tropicalis = test: Antifungal activity against Candida tropicalis; format: functional
Candida [15] = test: Antifungal activity against Candida species isolate 2; format: functional
Escherichia coli = test: Antibacterial activity against Escherichia coli; format: functional
Candida albicans = test: Antifungal activity against Candida albicans; format: functional
Candida [16] = test: Antifungal activity against Candida species isolate 3; format: functional
Nakaseomyces glabratus = test: Antifungal activity against Candida glabrata; format: functional
Pichia kudriavzevii = test: Antifungal activity against Candida krusei; format: functional
[17] = test system: Mycobacterium tuberculosis; test: Antimycobacterial activity against Mycobacterium tuberculosis at […]; format: functional; conditions: dose 12.5 µg/ml
Candida [18] = test: Antifungal activity against Candida species isolate 1; format: functional
Candida parapsilosis = test: Antifungal activity against Candida parapsilosis; format: functional; conditions: Lodderomyces parapsilosis
[19] = biological target: Fibroblast growth factor receptor 1 (Homo sapiens, UniProt P11362); test: Inhibition of FGFR1 (unknown origin) using ULight-JAK-1 (Tyr1023) peptide as substrate incubated for 90 mins and measured after 1 hr by LANCE Ultra TR-FRET assay
HCT-116 [20] = test: Antiproliferative activity against human HCT-116 cells after 72 hrs by MTT assay; format: functional, cell-based; conditions: HCT-116, 72 h
NCI-H460 = test: Antiproliferative activity against human NCI-H460 cells after 72 hrs by MTT assay; format: functional, cell-based; conditions: NCI-H460, 72 h
[21] = biological target: Fibroblast growth factor receptor 3 (Homo sapiens, UniProt P22607); test: Inhibition of FGFR3 (unknown origin)
B16-F10 = test: Antiproliferative activity against mouse B16-F10 cells after 72 hrs by MTT assay; format: functional, cell-based; conditions: B16-F10, 72 h
L02 = test: Antiproliferative activity against human HL7702 cells after 72 hrs by MTT assay; format: functional, cell-based; conditions: L02, 72 h
HeLa 229 = test: Antiproliferative activity against human HeLa 229 cells after 72 hrs by MTT assay; format: functional, cell-based; conditions: HeLa 229, 72 h
Staphylococcus aureus [22] = test: Antibacterial activity against methicillin-sensitive Staphylococcus aureus; format: functional
Staphylococcus aureus [23] = test: Antibacterial activity against methicillin-resistant Staphylococcus aureus; format: functional
[24] = biological target: Voltage-gated inwardly rectifying potassium channel KCNH2 (Homo sapiens, UniProt Q12809); test: Inhibition of hERG; format: toxicity
Topoisomerase IV = Topoisomerase IV (Staphylococcus aureus, UniProt P0C1S7+P0C1U9); test: Inhibition of Staphylococcus aureus topoisomerase 4; format: protein-complex assay
[25] = test system: Human immunodeficiency virus 1; test: Antiviral activity against HIV-1 IIIB; format: functional, organism-based; conditions: Human immunodeficiency virus 1, IIIB
[26] = test system: Human immunodeficiency virus 1; test: Antiviral activity against HIV-1 74V; format: functional, organism-based; conditions: Human immunodeficiency virus 1, 74V
[27] = test system: Human immunodeficiency virus 1; test: Antiviral activity against HIV1 measured by CPE assay; format: functional, organism-based
Aminopeptidase N = Aminopeptidase N (Homo sapiens, UniProt P15144)
[28] = test system: Human immunodeficiency virus 1; test: Antiviral activity against HIV-1 A17; format: functional, organism-based; conditions: Human immunodeficiency virus 1, A17
MV4-11 = test: Antiproliferative activity against human MV4-11 cells; format: functional, cell-based
Hepatitis C virus = test: Antiviral activity against HCV; format: functional, organism-based, Hepacivirus hominis
[29] = Antiproliferative activity against human U-87 MG cells; format: functional, cell-based, U-87MG ATCC
[30] = biological target: T1, Glutamate receptor ionotropic AMPA (Homo sapiens, UniProt P42261+P42262+P42263+P48058); test: Agonist activity at AMPA receptor (unknown origin); format: protein-complex assay
[31] = Binding affinity to benzodiazepine receptor (unknown origin); design: species or system Homo sapiens
Glutamate receptor 2 = Glutamate receptor 2 (Homo sapiens, UniProt P42262); test: Binding affinity to GluA2 receptor (unknown origin)
[32] = biological target: T1, Glutamate receptor ionotropic AMPA; test: Displacement of [3H]AMPA from AMPA receptor (unknown origin); format: protein-complex assay
[33] = biological target: T1, Glutamate receptor ionotropic AMPA; test: Displacement of [3H]kainic acid from AMPA receptor (unknown origin); format: protein-complex assay
[34] = biological target: T1, Glutamate receptor ionotropic AMPA; test: Displacement of […] from AMPA receptor (unknown origin); format: protein-complex assay
[35] = biological target: T2, Glutamate receptor ionotropic, kainate 1 (Homo sapiens, UniProt P39086); test: Binding affinity to GluK1 receptor (unknown origin)
[36] = biological target: T2, Glutamate receptor ionotropic, kainate 1; test: Binding affinity to GluK1 ligand binding domain (unknown origin)
[37] = biological target: Glutamate receptor ionotropic, kainate 2 (Homo sapiens, UniProt Q13002); test: Binding affinity to GluK2 receptor (unknown origin)

## O=C(O)Cn1c(=O)c(Oc2cc(O)cc(O)c2)nc2ccc(Cl)cc21
[1]
  inhibition: 38.2%
[2]
  Activity: 83.7%
[3]
  Activity: 55.3%
[4]
  Activity: 91.3%
[5]
  IC50: 0.566 µM
[6]
  Activity: 26.6%

## Cc1noc(C)c1-c1ccc2c(c1)C(c1ccccc1)N(Cc1cn(CCOCCOCCOCCn3cc(CC4C(=O)N(C)c5ccc(-c6c(C)noc6C)cc5N4c4ccccc4)nn3)nn1)C(=O)N2C (stereo not given)
HCT-116 [7]
  IC50: 0.162 µM
[8]
  IC50: 0.0077 µM
CT26
  Activity: 56.1%

## O=C(Cn1c(=O)c2nncn2c2ccccc21)Nc1ccc(C(=O)Nc2ccc(Cl)cc2)cc1
HepG2 [9]
  fold change (FC): 3.81
MCF7
  IC50: 7.2 µM
HepG2 [10]
  fold change (FC): 2.14
[11]
  IC50: 0.0034 µM
HepG2 [12]
  IC50: 4.1 µM
HepG2 [13]
  fold change (FC): 1.96
HepG2 [14]
  fold change (FC): 1.82

## O=c1[nH]c2cc([N+](=O)[O-])ccc2nc1CBr
Candida tropicalis
  MIC: 31.2 µg/mL (≈ 110 µM)
Candida [15]
  MIC: 31.2 µg/mL (≈ 110 µM)
Escherichia coli
  MIC: 125 µg/mL (≈ 440 µM)
Candida albicans
  MIC: 8 µg/mL (≈ 28.2 µM)
Candida [16]
  MIC: 15.6 µg/mL (≈ 54.9 µM)
Nakaseomyces glabratus
  MIC: 15.6 µg/mL (≈ 54.9 µM)
Pichia kudriavzevii
  MIC: 62.5 µg/mL (≈ 220 µM)
[17]
  Activity: 15%
Candida [18]
  MIC: 15.6 µg/mL (≈ 54.9 µM)
Candida parapsilosis
  MIC: 15.6 µg/mL (≈ 54.9 µM)

## O=c1c(/C=C/c2ccccc2Cl)nc2ccccc2n1Cc1ccccc1
[19]
  IC50: 25.7 µM
HCT-116 [20]
  IC50: > 50 µM
NCI-H460
  IC50: 18.1 µM
[21]
  IC50: 94.5 µM
B16-F10
  IC50: 3.39 µM
L02
  IC50: > 100 µM
HeLa 229
  IC50: > 50 µM

## COc1ccc2nccc(CC[C@H]3OC[C@H](NC(=O)c4ccc5c(c4)OCCO5)CO3)c2c1
Staphylococcus aureus [22]
  MIC: 1 µg/mL (≈ 2.22 µM)
Staphylococcus aureus [23]
  MIC: 1 µg/mL (≈ 2.22 µM)
[24]
  IC50: > 100 µM
Topoisomerase IV
  IC50: > 200 µM

## COc1cccc(/C=N/NC(=O)Cn2c(=O)c(C)nc3ccccc32)c1O
[25]
  EC50: 6.05 µM
[26]
  EC50: 3.48 µM
[27]
  EC50: 2.79 µM
Aminopeptidase N
  IC50: 80.9 µM
[28]
  EC50: 2.46 µM

## CCC1C(=O)Nc2ccc(-c3c(C)noc3C)cc2N1Cc1ccccc1 (stereo not given)
MV4-11
  IC50: 0.253 µM
[8]
  IC50: 0.073 µM

## CCC(CC)N(C)c1cc2ncc(=O)[nH]c2cc1Nc1nc(-c2ccccc2)cs1
Hepatitis C virus
  EC50: 1.27 µM

## COc1cc2c(Oc3ccc(NC(=O)c4nc5ccccc5n(C5CCCCC5)c4=O)cc3F)ccnc2cc1OCCCN1CCOCC1
[29]
  IC50: 0.81 µM

## N[C@@H](Cn1c(=O)c(=O)[nH]c2ccccc21)C(=O)O
[30]
  EC50: 3 µM

## Oc1nc2ccc(Cl)cc2n2nc(-c3ccccc3F)nc12
[31]
  Ki: 0.0029 µM

## N[C@@H](CCc1ccc2[nH]c(=O)c(=O)[nH]c2c1)C(=O)O
Glutamate receptor 2
  Ki: 21.3 µM
[32]
  IC50: 26 µM
[33]
  IC50: 126 µM
[34]
  Ki: 78 µM
[35]
  Ki: 16.1 µM
[36]
  Ki: 37.1 µM
[37]
  Ki: 9.52 µM
